Laboratory results as given in patent US12692249B2, “WDR5 inhibitors and modulators” (Vanderbilt University, priority 2019, dated 2026).
Where two headings read alike, the source gives them in different places.

System: MV4:11 human cancer cell lines
Assay: Cellular viability / anti-proliferative assay, CellTiter-Glo, 5 day protocol
Type: cell-based
Conditions: Homo sapiens, MV4-11, 120 h, read-out: GI50 on cellular proliferation of MV4:11 human cancer cell lines
Procedure: Cellular Viability of Human Tumor Cell Lines
Anti-proliferative activity using MLL-harboring cell lines. MV-4-11 and K562 cells are grown in IMDM media supplemented with 10% FBS and 1% penicillin/streptomycin, Molm-13 cells are cultured in RPMI-1640 media supplemented with 10% FBS and 1% penicillin/streptomycin. Viability assays are performed by dispensing 200 cells at 7200 cells/mL into each well of an opaque 384-well plate and adding compounds at the indicated concentrations in a final volume, of 32 μL. and a final concentration of DMSO of 0.3% for all samples. A certain range of compound concentrations is made through a series of 2-fold dilutions starting 30 μM at the highest, total 22 dilutions. After a set incubation period, 5 day protocol, the viability of cells in each well is assessed using the CellTiter-Glo assay (Promega), read on a 96 Microplane Luminometer (Cytation 3, BioTek). Serial dilutions of each cell type are performed in all assays to generate standard curves and the final densities of cells are determined within the dynamic range of the instrument. GI50 values are calculated based on XLfit software (IDBS, Guildford, UK) with Sigmoidal Dose-Response Model. Each compound is tested in minimum of two replicates. Data are expressed as mean.

[1] = MV4:11 cells, 5 day incubation, CellTiter-Glo, mean of at least two replicates

`CCc1cc(N2CCN(C(C)C)CC2)c2nc(C)cc(N3CCc4c(cc(Cn5ccnc5)cc4-c4cn(C)nc4C(F)(F)F)C3=O)c2c1` [Example 137, 7-((1H-Imidazol-1-yl)methyl)-2-(6-ethyl-8-(4-isopropylpiperazin-1-yl)-2-methylquinolin-4-yl)-5-(1-methyl-3-(trifluoromethyl)-1H-pyrazol-4-yl)-3,4-dihydroisoquinolin-1(2H)-one] was tested, and the GI50 [1] was < 20 nM.
Work on `CCc1cc(C(=O)NC2CCCC2)c2nccc(N3CCc4c(cc(Cn5ccnc5)cc4-c4cn(C)nc4C(F)(F)F)C3=O)c2c1` [Example 164, 4-(7-((1H-Imidazol-1-yl)methyl)-5-(1-methyl-3-(trifluoromethyl)-1H-pyrazol-4-yl)-1-oxo-3,4-dihydroisoquinolin-2(1)-yl)-N-cyclopentyl-6-ethylquinoline-8-carboxamide] yielded a GI50 [1] of 155 nM.
In the case of `CCc1cc(C(=O)NCCN(C)C)c2nccc(N3CCc4c(cc(Cn5ccnc5)cc4-c4cn(C)nc4C(F)(F)F)C3=O)c2c1` [Example 166, 4-(7-((1H-Imidazol-1-yl)methyl)-5-(1-methyl-3-(trifluoromethyl)-1H-pyrazol-4-yl)-1-oxo-3,4-dihydroisoquinolin-2(1H)-yl)-N-(2-(dimethylamino)ethyl)-6-ethylquinoline-8-carboxamide], the GI50 was < 20 nM.
`CCc1cc(C(=O)NCCO)c2nccc(N3CCc4c(cc(Cn5ccnc5)cc4-c4cn(C)nc4C(F)(F)F)C3=O)c2c1` [Example 168, 4-(7-((1H-Imidazol-1-yl)methyl)-5-(1-methyl-3-(trifluoromethyl)-1H-pyrazol-4-yl)-1-oxo-3,4-dihydroisoquinolin-2(1H)-yl)-6-ethyl-N-(2-hydroxyethyl)quinoline-8-carboxamide] was tested, and the GI50 [1] was 46 nM.
Work on `CCOC(=O)c1cc(CC)cc2c(N3CCc4c(cc(Cn5ccnc5)cc4-c4cn(C)nc4C(F)(F)F)C3=O)cc(C)nc12` [Example 162, ethyl 4-(7-((1H-imidazol-1-yl)methyl)-5-(1-methyl-3-(trifluoromethyl)-1H-pyrazol-4-yl)-1-oxo-3,4-dihydroisoquinolin-2(1H)-yl)-6-ethyl-2-methylquinoline-8-carboxylate] yielded a GI50 [1] of 88 nM.
For `COc1cc(N2CCN(C(C)=O)CC2)c2nccc(N3CCc4c(cc(Cn5ccnc5)cc4-c4cn(C)nc4C(F)(F)F)C3=O)c2c1` [Example 32, 7-((1H-imidazol-1-yl)methyl)-2-(8-(4-acetylpiperazin-1-yl)-6-methoxyquinolin-4-yl)-5-(1-methyl-3-(trifluoromethyl)-1H-pyrazol-4-yl)-3,4-dihydroisoquinolin-1(2H)-one], the GI50 [1] was < 20 nM.
In the case of `COc1cc(-c2nnn[nH]2)c2nc(C)cc(N3CCc4c(cc(Cn5ccnc5)cc4-c4cn(C)nc4C(F)(F)F)C3=O)c2c1` [Example 196, 7-((1H-Imidazol-1-yl)methyl)-2-(6-methoxy-2-methyl-8-(1H-tetrazol-5-yl)quinolin-4-yl)-5-(1-methyl-3-(trifluoromethyl)-1H-pyrazol-4-yl)-3,4-dihydroisoquinolin-1(2H)-one], the GI50 [1] was > 10000 nM.
With `COc1cc(C(=O)N2CCN(C)CC2)c2nccc(N3CCc4c(cc(Cn5ccnc5)cc4-c4cn(C)nc4C(F)(F)F)C3=O)c2c1` [Example 43, 7-((1H-Imidazol-1-yl)methyl)-2-(6-methoxy-8-(4-methylpiperazine-1-carbonyl)quinolin-4-yl)-5-(1-methyl-3-(trifluoromethyl)-1H-pyrazol-4-yl)-3,4-dihydroisoquinolin-1(2H)-one] the GI50 [1] was 563 nM.
`COc1cc(C(=O)NC(C)C)c2nccc(N3CCc4c(cc(Cn5ccnc5)cc4-c4cn(C)nc4C(F)(F)F)C3=O)c2c1` [Example 47, 4-(7-((1H-Imidazol-1-yl)methyl)-5-(1-methyl-3-(trifluoromethyl)-1H-pyrazol-4-yl)-1-oxo-3,4-dihydroisoquinolin-2(1H)-yl)-N-isopropyl-6-methoxyquinoline-8-carboxamide] was tested, and the GI50 [1] was 54 nM.
With `COc1cc(C(N)=O)c2nc(C)cc(N3CCc4c(cc(Cn5ccnc5)cc4-c4cn(C)nc4C(F)(F)F)C3=O)c2c1` [Example 198, 4-(7-((1H-Imidazol-1-yl)methyl)-5-(1-methyl-3-(trifluoromethyl)-1H-pyrazol-4-yl)-1-oxo-3,4-dihydroisoquinolin-2(1H)-yl)-6-methoxy-2-methylquinoline-8-carboxamide] the GI50 [1] was < 20 nM.
For `CCc1cc(C(=O)NC2CN(C(=O)c3ccncc3)C2)c2nccc(N3CCc4c(cc(Cn5ccnc5)cc4-c4cn(C)nc4C(F)(F)F)C3=O)c2c1` [Example 225], the GI50 [1] was < 20 nM.
With `COc1cc(C(=O)NC2CN(C(=O)c3cscn3)C2)c2nccc(N3CCc4c(cc(Cn5ccnc5)cc4-c4cn(C)nc4C(F)(F)F)C3=O)c2c1` [Example 227] the GI50 [1] was < 20 nM.
For `COc1cc(N2CCN(C)C(=O)C2)c2nccc(N3CCc4c(cc(Cn5ccnc5)cc4-c4cn(C)nc4C(F)(F)F)C3=O)c2c1` [Example 33, 7-((1H-Imidazol-1-yl)methyl)-2-(6-methoxy-8-(4-methyl-3-oxopiperazin-1-yl)quinolin-4-yl)-5-(1-methyl-3-(trifluoromethyl)-1H-pyrazol-4-yl)-3,4-dihydroisoquinolin-1(2H)-one], the GI50 [1] was < 20 nM.
With `CCc1cc(C2CCN(C)CC2)c2nc(C)cc(N3CCc4c(cc(Cn5ccnc5)cc4-c4cn(C)nc4C(F)(F)F)C3=O)c2c1` [Example 148, 7-((1H-Imidazol-1-yl)methyl)-2-(6-ethyl-2-methyl-8-(1-methylpiperidin-4-yl)quinolin-4-yl)-5-(1-methyl-3-(trifluoromethyl)-1H-pyrazol-4-yl)-3,4-dihydroisoquinolin-1(2H)-one] the GI50 [1] was < 20 nM.
With `CCc1cc(C(=O)NC2CN(C(C)=O)C2)c2nccc(N3CCc4c(cc(Cn5ccnc5)cc4-c4cn(C)nc4C(F)(F)F)C3=O)c2c1` [Example 241] the GI50 [1] was < 20 nM.
`CCc1cc(C(=O)Nc2nccn2C)c2nccc(N3CCc4c(cc(Cn5ccnc5)cc4-c4cn(C)nc4C(F)(F)F)C3=O)c2c1` [Example 161, 4-(7-((1H-Imidazol-1-yl)methyl)-5-(1-methyl-3-(trifluoromethyl)-1H-pyrazol-4-yl)-1-oxo-3,4-dihydroisoquinolin-2(1H)-yl)-6-ethyl-N-(1-methyl-1H-imidazol-2-yl)quinoline-8-carboxamide] gave a GI50 [1] of 59 nM.
Compound `COc1cc(C2=CCN(C)CC2)c2nc(C)cc(N3CCc4c(cc(Cn5ccnc5)cc4-c4cn(C)nc4C(F)(F)F)C3=O)c2c1` [Example 154, 7-((1H-Imidazol-1-yl)methyl)-2(6-methoxy-2-methyl-8-(1-methyl-1,2,3,6-tetrahydropyridin-4-yl)quinolin-4-yl)-5-(1-methyl-3-(trifluoromethyl)-1H-pyrazol-4-yl)-3,4-dihydroisoquinolin-1(2H)-one] has a GI50 [1] of 33 nM.
`COc1cc(C(N)=O)c2nccc(N3CCc4c(cc(Cn5ccnc5)cc4-c4cn(C)nc4C(F)(F)F)C3=O)c2c1` [Example 41, 4-(7-((1H-Imidazol-1-yl)methyl)-5-(1-methyl-3-(trifluoromethyl)-1H-pyrazol-4-yl)-1-oxo-3,4-dihydroisoquinolin-2(1H)-yl)-6-methoxyquinoline-8-carboxamide] gave a GI50 [1] of 24 nM.
`COc1cc(C(=O)NC2CN(C(C)=O)C2)c2nccc(N3CCc4c(cc(Cn5ccnc5)cc4-c4cn(C)nc4C(F)(F)F)C3=O)c2c1` [Example 226, 4-(7-((1H-Imidazol-1-yl)methyl)-5-(1-methyl-3-(trifluoromethyl)-1H-pyrazol-4-yl)-1-oxo-3,4-dihydroisoquinolin-2(1H)-yl)-N-(1-acetylazetidin-3-yl)-6-methoxyquinoline-8-carboxamide] gave a GI50 [1] of 43 nM.
Compound `CCc1cc(OC)c2nccc(N3CCc4c(cc(Cn5ccnc5)cc4-c4cccnc4C(F)(F)F)C3=O)c2c1` [Example 185, 7-((1H-Imidazol-1-yl)methyl)-2-(6-ethyl-8-methoxyquinolin-4-yl)-5-(2-(trifluoromethyl)pyridin-3-yl)-3,4-dihydroisoquinolin-1(2H)-one] has a GI50 [1] of 55 nM.
`CCc1cc(N2CCOCC2)c2nc(C)cc(N3CCc4c(cc(Cn5ccnc5)cc4-c4cn(C)nc4C(F)(F)F)C3=O)c2c1` [Example 145, 7-((1H-Imidazol-1-yl)methyl)-2-(6-ethyl-2-methyl-8-morpholinoquinolin-4-yl)-5-(1-methyl-3-(trifluoromethyl)-1H-pyrazol-4-yl)-3,4-dihydroisoquinolin-1(2H)-one] was tested, and the GI50 [1] was 36 nM.
`COc1cc(N2CCC(NC(C)=O)CC2)c2nc(C)cc(N3CCc4c(cc(Cn5ccnc5)cc4-c4cn(C)nc4C(F)(F)F)C3=O)c2c1` [Example 192, N-(1-(4-(7-((1H-Imidazol-1-yl)methyl)-5-(1-methyl-3-(trifluoromethyl)-1H-pyrazol-4-yl)-1-oxo-3,4-dihydroisoquinolin-2(1H)-yl)-6-methoxy-2-methylquinolin-8-yl)piperidin-4-yl)acetamide] was tested, and the GI50 [1] was < 20 nM.
For `CCOC(=O)c1cc(CC)cc2c(N3CCc4c(cc(Cn5ccnc5)cc4-c4cn(C)nc4C(F)(F)F)C3=O)ccnc12` [Example 91, Ethyl 4-(7-((1H-imidazol-1-yl)methyl)-5-(1-methyl-3-(trifluoromethyl)-1H-pyrazol-4-yl)-1-oxo-3,4-dihydroisoquinolin-2(1H)-yl)-6-ethylquinoline-8-carboxylate], the GI50 [1] was < 20 nM.
